Data on 5 molecules can be found in ChEMBL document CHEMBL1151313, “Isolation and structure elucidation of new PKCalpha inhibitors from Pinus flexilis” (J Nat Prod, 1998).

In this experiment the target is Protein kinase C alpha type (Homo sapiens, UniProt P17252). Put plainly: Inhibition of human recombinant PKCalpha.
With `OC[C@H]1O[C@@H](O[C@H](CCCCc2ccc(O)c(O)c2)CCc2ccc(O)c(O)c2)[C@H](O)[C@@H](O)[C@@H]1O`, the IC50 was 2.83 µM.
Take `Oc1ccc(CCCC[C@@H](O)CCc2ccc(O)c(O)c2)cc1O`: the IC50 is 4.81 µM.
For `O=C(/C=C/CCc1ccc(O)c(O)c1)CCc1ccc(O)c(O)c1` [DEHYDROHIRSUTANONOL] the value was 4.26 µM.
For the molecule `O=C(CCc1ccc(O)c(O)c1)C[C@@H](O)CCc1ccc(O)c(O)c1` [HIRSUTANONOL], the IC50 was 13.3 µM.
Then `O=C(CCc1ccc(O)c(O)c1)C[C@H](CCc1ccc(O)c(O)c1)O[C@@H]1OC[C@@H](O)[C@H](O)[C@H]1O` [OREGONIN], with 18 µM.

What is called IC50 is the midpoint of a concentration-inhibition curve.
